Laboratory results: patent US20220323383A1, “SMALL-MOLECULAR ADJUVANTS AND IMPLEMENTATIONS THEREOF” (JAWAHARLAL NEHRU CENTRE FOR ADVANCED SCIENTIFIC RESEARCH, priority 2019, published 2022)

What was measured:
Assay type in all cases: cell-based
P. aeruginosa R590 [1] = experiment: Chequerboard combination efficacy of adjuvant with antibiotics; settings: P. aeruginosa R590
Procedure, shortened: (§1)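 Two-fold chequerboard broth microdilution of adjuvant plus antibiotic; 6 h cultures in peptone diluted to ~10^5 cfu/mL, incubated 24 h at 37 °C, 150 rpm, OD600 read. Wells matching media control define inhibitory concentrations; FIC index (FICantibiotic+FICadjuvant) and potentiation factor (MIC alone/MIC with adjuvant) calculated.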

K. pneumoniae R3934 [2] = experiment: as above
Procedure, shortened: as §1

A. baumannii R674 [3] = experiment: as above
Procedure, shortened: as §1

E. coli R3336 [4] = experiment: as above
Procedure, shortened: as §1

P. aeruginosa R590 [5] = experiment: Individual antibacterial activity (MIC) of adjuvants; settings: Pseudomonas aeruginosa, R590, read-out: MIC against clinical isolates of bacteria
Procedure, shortened: (§2)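 Broth microdilution used 6-h peptone cultures diluted to about 10^5 cfu/mL, with two-fold serial dilutions of adjuvant alone. Plates were incubated at 37 °C with shaking at 150 rpm. MIC was taken as the lowest concentration giving OD600 equal to the media control at 24 h.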

K. pneumoniae R3934 [6] = experiment: as above; settings: Klebsiella pneumoniae, R3934, read-out: MIC against clinical isolates of bacteria
Procedure, shortened: as §2

A. baumannii R674 [7] = experiment: as above; settings: Acinetobacter baumannii, R674, read-out: MIC against clinical isolates of bacteria
Procedure, shortened: as §2

E. coli R3336 [8] = experiment: as above; settings: Escherichia coli, R3336, read-out: MIC against clinical isolates of bacteria
Procedure, shortened: as §2

`NCCCC[C@H](N)C(=O)NCCCCCCN(CCCCCCNC(=O)[C@@H](N)CCCCN)C(=O)Cc1cccc2ccccc12` [Compound 13, N,N-bis-[(6-(^LLys)amido)hexyl] naphthyl ethanamide tetrakistrifluoroacetate] was tested, and the FICI (P. aeruginosa R590 [1]; antibiotic Chloramphenicol) was 0.375, the “MIC of antibiotic in presence of adjuvant” value (from here on “MIC of antibiotic”) (P. aeruginosa R590 [1]; antibiotic Chloramphenicol) was 32 µg/mL and the Potentiation factor (P. aeruginosa R590 [1]; antibiotic Chloramphenicol) was 4. The “MIC of antibiotic” value (P. aeruginosa R590 [1]; antibiotic Colistin) was “No potentiation”, the “MIC of antibiotic” value (P. aeruginosa R590 [1]; antibiotic Daptomycin) was “No potentiation” and the FICI (P. aeruginosa R590 [1]; antibiotic Fusidic acid) was 0.094. The “MIC of antibiotic” value (P. aeruginosa R590 [1]; antibiotic Fusidic acid) was 2 µg/mL, the Potentiation factor (P. aeruginosa R590 [1]; antibiotic Fusidic acid) was 32 and the FICI (P. aeruginosa R590 [1]; antibiotic Linezolid) was 0.1875. For the same molecule, the “MIC of antibiotic” value (P. aeruginosa R590 [1]; antibiotic Linezolid) was 32 µg/mL, the Potentiation factor (P. aeruginosa R590 [1]; antibiotic Linezolid) was 8 and the FICI (P. aeruginosa R590 [1]; antibiotic Minocycline) was 0.1875. For the same molecule, the “MIC of antibiotic” value (P. aeruginosa R590 [1]; antibiotic Minocycline) was 0.5 µg/mL, the Potentiation factor (P. aeruginosa R590 [1]; antibiotic Minocycline) was 16 and the FICI (P. aeruginosa R590 [1]; antibiotic Rifampicin) was under 0.019. For the same molecule, the “MIC of antibiotic” value (P. aeruginosa R590 [1]; antibiotic Rifampicin) was under 0.5 µg/mL, the Potentiation factor (P. aeruginosa R590 [1]; antibiotic Rifampicin) was over 256 and the FICI (P. aeruginosa R590 [1]; antibiotic Tetracycline) was 0.266. The “MIC of antibiotic” value (P. aeruginosa R590 [1]; antibiotic Tetracycline) was 4 µg/mL, the Potentiation factor (P. aeruginosa R590 [1]; antibiotic Tetracycline) was 64 and the FICI (K. pneumoniae R3934 [2]; antibiotic Fusidic acid) was under 0.133. The “MIC of antibiotic” value (K. pneumoniae R3934 [2]; antibiotic Fusidic acid) was 4 µg/mL, the Potentiation factor (K. pneumoniae R3934 [2]; antibiotic Fusidic acid) was 128 and the FICI (K. pneumoniae R3934 [2]; antibiotic Linezolid) was under 0.25. For the same molecule, the “MIC of antibiotic” value (K. pneumoniae R3934 [2]; antibiotic Linezolid) was 64 µg/mL, the Potentiation factor (K. pneumoniae R3934 [2]; antibiotic Linezolid) was over 8 and the FICI (K. pneumoniae R3934 [2]; antibiotic Minocycline) was under 0.07. For the same molecule, the “MIC of antibiotic” value (K. pneumoniae R3934 [2]; antibiotic Minocycline) was 0.5 µg/mL, the Potentiation factor (K. pneumoniae R3934 [2]; antibiotic Minocycline) was 128 and the FICI (K. pneumoniae R3934 [2]; antibiotic Rifampicin) was under 0.064. The “MIC of antibiotic” value (K. pneumoniae R3934 [2]; antibiotic Rifampicin) was 1 µg/mL, the Potentiation factor (K. pneumoniae R3934 [2]; antibiotic Rifampicin) was 512 and the “MIC of antibiotic” value (A. baumannii R674 [3]; antibiotic Ampicillin) was “No potentiation”. The FICI (A. baumannii R674 [3]; antibiotic Ciprofloxacin) was 0.3125, the “MIC of antibiotic” value (A. baumannii R674 [3]; antibiotic Ciprofloxacin) was 64 µg/mL and the Potentiation factor (A. baumannii R674 [3]; antibiotic Ciprofloxacin) was 4. The FICI (A. baumannii R674 [3]; antibiotic Erythromycin) was 0.156, the “MIC of antibiotic” value (A. baumannii R674 [3]; antibiotic Erythromycin) was 16 µg/mL and the Potentiation factor (A. baumannii R674 [3]; antibiotic Erythromycin) was 32. The FICI (A. baumannii R674 [3]; antibiotic Fusidic acid) was under 0.023, the “MIC of antibiotic” value (A. baumannii R674 [3]; antibiotic Fusidic acid) was under 0.5 µg/mL and the Potentiation factor (A. baumannii R674 [3]; antibiotic Fusidic acid) was over 128. The FICI (A. baumannii R674 [3]; antibiotic Linezolid) was 0.1875, the “MIC of antibiotic” value (A. baumannii R674 [3]; antibiotic Linezolid) was 32 µg/mL and the Potentiation factor (A. baumannii R674 [3]; antibiotic Linezolid) was 8. The FICI (A. baumannii R674 [3]; antibiotic Minocycline) was 0.1875, the “MIC of antibiotic” value (A. baumannii R674 [3]; antibiotic Minocycline) was 0.5 µg/mL and the Potentiation factor (A. baumannii R674 [3]; antibiotic Minocycline) was 16. For the same molecule, the FICI (A. baumannii R674 [3]; antibiotic Rifampicin) was 0.023, the “MIC of antibiotic” value (A. baumannii R674 [3]; antibiotic Rifampicin) was 1 µg/mL and the Potentiation factor (A. baumannii R674 [3]; antibiotic Rifampicin) was 64. The “MIC of antibiotic” value (A. baumannii R674 [3]; antibiotic Streptomycin) was “No potentiation”, the FICI (A. baumannii R674 [3]; antibiotic Tetracycline) was 0.375 and the “MIC of antibiotic” value (A. baumannii R674 [3]; antibiotic Tetracycline) was 16 µg/mL. The Potentiation factor (A. baumannii R674 [3]; antibiotic Tetracycline) was 8, the FICI (A. baumannii R674 [3]; antibiotic Vancomycin) was 0.5625 and the “MIC of antibiotic” value (A. baumannii R674 [3]; antibiotic Vancomycin) was 32 µg/mL. For the same molecule, the Potentiation factor (A. baumannii R674 [3]; antibiotic Vancomycin) was 2, the FICI (E. coli R3336 [4]; antibiotic Fusidic acid) was under 0.125 and the “MIC of antibiotic” value (E. coli R3336 [4]; antibiotic Fusidic acid) was 32 µg/mL. For the same molecule, the Potentiation factor (E. coli R3336 [4]; antibiotic Fusidic acid) was over 16, the “MIC of antibiotic” value (E. coli R3336 [4]; antibiotic Linezolid) was “No potentiation” and the FICI (E. coli R3336 [4]; antibiotic Minocycline) was under 0.031. The “MIC of antibiotic” value (E. coli R3336 [4]; antibiotic Minocycline) was 0.5 µg/mL, the Potentiation factor (E. coli R3336 [4]; antibiotic Minocycline) was 64 and the FICI (E. coli R3336 [4]; antibiotic Rifampicin) was under 0.031. For the same molecule, the “MIC of antibiotic” value (E. coli R3336 [4]; antibiotic Rifampicin) was 8 µg/mL, the Potentiation factor (E. coli R3336 [4]; antibiotic Rifampicin) was 64 and the MIC (P. aeruginosa R590 [5]) was 512 µg/mL. The MIC (K. pneumoniae R3934 [6]) was over 512 µg/mL, the MIC (A. baumannii R674 [7]) was 512 µg/mL and the MIC (E. coli R3336 [8]) was over 512 µg/mL.
